Experimental data from patent US9675592B2, “Methods and compositions for bacteria infections” (priority 2013, dated 2017).

How the values were obtained:
[1] = system: test strain 923 pPvra-lux (USA300 MRSA); assay: Primary screen, relative growth in presence of oxacillin; conditions: compound 10 μM with oxacillin 2 μg/mL, absorbance 24 h, <0.50 = dead cells = hit
[2] = system: vraSR promoter (Pvra-lux reporter in strain 923); assay: Primary screen, relative luminescence (vraSR expression); conditions: primary screen, compound 10 μM with oxacillin 2 μg/mL; <0.50 = vraSR repressed = hit

For `COc1ccc(-c2nnc(NC(=O)c3ccc(C(=O)c4ccccc4)cc3)o2)cc1` [F1374-443], the “RG avg (relative growth)” value [1] was 0.05 and the “RL avg (relative luminescence)” value [2] was 0.39.
`O=C(Nc1nnc(-c2ccc(F)cc2)o1)c1ccc2c(c1)CCCC2` [F1374-172] was tested, and the “RG avg (relative growth)” value [1] was 0.04 and the “RL avg (relative luminescence)” value [2] was 0.39.
For `O=C(Nc1nnc(-c2cccs2)o1)c1sc2ccccc2c1Cl` [F1374-988], the “RG avg (relative growth)” value [1] was 0.03 and the “RL avg (relative luminescence)” value [2] was 0.37.
With `COc1ccc(-c2nnc(NC(=O)c3ccc(Br)s3)o2)cc1` [F1374-455] the “RG avg (relative growth)” value [1] was 0.03 and the “RL avg (relative luminescence)” value [2] was 0.33.
For `O=C(Nc1nnc(-c2ccc3c(c2)CCCC3)o1)c1nc2ccccc2s1` [F0608-570], the “RG avg (relative growth)” value [1] was −0.05 and the “RL avg (relative luminescence)” value [2] was −0.07.
`O=C(Nc1nnc(-c2ccc(Br)cc2)o1)c1cc(Cl)sc1Cl` [F2518-504] was tested, and the “RG avg (relative growth)” value [1] was 0.01 and the “RL avg (relative luminescence)” value [2] was 0.00.
In the case of `COc1cc(-c2nnc(NC(=O)c3ccc(S(=O)(=O)N(Cc4ccccc4)C(C)C)cc3)o2)cc(OC)c1OC` [F0559-328], the “RG avg (relative growth)” value [1] is reported as 0.15 and the “RL avg (relative luminescence)” value [2] is reported as 0.01.
`O=C(Nc1nnc(-c2cc(Cl)ccc2Cl)o1)c1ccc(C(=O)c2ccccc2)cc1` [F2518-24] was tested, and the “RG avg (relative growth)” value [1] was −0.01 and the “RL avg (relative luminescence)” value [2] was 0.06.
For `O=C(Nc1nnc(-c2cc(Cl)ccc2Cl)o1)c1nc2ccccc2s1` [F2518-39], the “RG avg (relative growth)” value [1] was −0.01 and the “RL avg (relative luminescence)” value [2] was −0.07.
In the case of `CSc1ccc(-c2nnc(NC(=O)c3ccc(S(=O)(=O)N(C)Cc4ccccc4)cc3)o2)cc1` [F2645-405], the “RG avg (relative growth)” value [1] is reported as 0.29 and the “RL avg (relative luminescence)” value [2] is reported as 0.57.
For `O=C(Nc1nnc(-c2ccc(F)cc2)o1)c1sc2ccccc2c1Cl` [F1374-148], the “RG avg (relative growth)” value [1] was 0.04 and the “RL avg (relative luminescence)” value [2] was 0.36.
`O=C(Nc1nnc(-c2ccncc2)o1)c1ccc(Oc2ccccc2)cc1` [F0608-1161] was tested, and the “RG avg (relative growth)” value [1] was 0.00 and the “RL avg (relative luminescence)” value [2] was −0.07.
`O=C(Nc1nnc(-c2ccc(Br)s2)o1)c1nc2ccccc2s1` [F5093-37] was tested, and the “RG avg (relative growth)” value [1] was 0.02 and the “RL avg (relative luminescence)” value [2] was −0.03.
`COC(=O)c1ccc(C(=O)Nc2nnc(-c3cc(C)ccc3C)o2)cc1` [F2518-355] was tested, and the “RG avg (relative growth)” value [1] was −0.01 and the “RL avg (relative luminescence)” value [2] was −0.04.
`O=C(Nc1nnc(-c2ccc(Br)cc2)o1)c1sc2ccccc2c1Cl` [F2518-484] was tested, and the “RG avg (relative growth)” value [1] was 0.02 and the “RL avg (relative luminescence)” value [2] was 0.02.
For `O=C(Nc1nnc(-c2cc(Cl)sc2Cl)o1)c1ccc2ncsc2c1` [F1374-2676], the “RG avg (relative growth)” value [1] was 0.01 and the “RL avg (relative luminescence)” value [2] was 0.34.
With `O=C(Nc1nnc(-c2ccc3c(c2)OCCO3)o1)c1cccc(Cl)c1` [F0608-123] the “RG avg (relative growth)” value [1] was −0.02 and the “RL avg (relative luminescence)” value [2] was −0.04.
For `COc1cc(-c2nnc(NC(=O)c3cccc(Cl)c3)o2)cc(OC)c1OC` [F2517-7], the “RG avg (relative growth)” value [1] was −0.03 and the “RL avg (relative luminescence)” value [2] was −0.11.
For `O=C(Nc1nnc(-c2ccc3c(c2)CCCC3)o1)c1ccc(Cl)s1` [F0608-662], the “RG avg (relative growth)” value [1] was −0.07 and the “RL avg (relative luminescence)” value [2] was −0.10.
For `O=C(Nc1nnc(-c2ccc(Br)cc2)o1)c1ccc(Oc2ccccc2)cc1` [F2518-534], the “RG avg (relative growth)” value [1] was 0.01 and the “RL avg (relative luminescence)” value [2] was 0.04.
In the case of `O=C(Nc1nnc(-c2ccc(Br)s2)o1)c1ccc(F)cc1` [F5093-12], the “RG avg (relative growth)” value [1] is reported as 0.01 and the “RL avg (relative luminescence)” value [2] is reported as −0.01.
`O=C(Nc1nnc(-c2ccccc2Cl)o1)c1ccc(Cl)s1` [F1374-36] was tested, and the “RG avg (relative growth)” value [1] was 0.04 and the “RL avg (relative luminescence)” value [2] was 0.35.
For `COc1cccc2cc(-c3nnc(NC(=O)c4nc5ccccc5s4)o3)oc12` [F2273-37], the “RG avg (relative growth)” value [1] was 0.09 and the “RL avg (relative luminescence)” value [2] was 0.09.
`O=C(Nc1nnc(-c2cc(Cl)sc2Cl)o1)c1cccc(C(F)(F)F)c1` [F1374-2671] was tested, and the “RG avg (relative growth)” value [1] was 0.03 and the “RL avg (relative luminescence)” value [2] was 0.35.
With `COc1cc(-c2nnc(NC(=O)c3ccc(S(=O)(=O)N4CCc5ccccc5C4)cc3)o2)cc(OC)c1OC` [F0559-321] the “RG avg (relative growth)” value [1] was −0.03 and the “RL avg (relative luminescence)” value [2] was −0.09.
